Laboratory results from patent US12227721B2, “Hydrofluorothioethers and methods of using same” (3M INNOVATIVE PROPERTIES COMPANY, priority 2020, dated 2025).

How the values were obtained:
[1] = Largest Soluble Hydrocarbon (LSH); type: physicochemical; details: test material to hydrocarbon ratio approximately 1:1 to 1:2 by weight, no haze to the naked eye
Protocol: Largest Soluble Hydrocarbon (LSH): The LSH of each hydrofluorothioether and competitive example was determined by mixing the compound with hydrocarbons of varying molecular weight (CnH2n+2, where n=9 to 24) in a test material to hydrocarbon ratio of approximately 1:1 to 1:2 by weight at room temperature (23° C.) and at 50° C. […] A larger value of n is interpreted herein to indicate a greater ability of the hydrofluorothioether to clean hydrocarbons.
Table 2 summarizes results of Largest Soluble Hydrocarbon (LSH) testing of Examples 1-3 and Comparative Examples CE1-CE5.

[2] = Atmospheric lifetime from relative rate studies with hydroxyl radicals; type: physicochemical; details: rate of reaction with hydroxyl radicals relative to CH3Cl reference
Protocol: Atmospheric Lifetime and Global Warming Potential (GWP): The atmospheric lifetime of each test material was determined from relative rate studies utilizing chloromethane (CH3Cl) as a reference compound. The pseudo-first order reaction rates of the reference compound and the test compound with hydroxyl radicals (·OH) was determined in a laboratory chamber system. The atmospheric lifetime of the reference compound is documented in the literature. Based on this value and the pseudo-first order rates measured in the chamber experiments, the atmospheric lifetime for each specimen was calculated from the reaction rates for the test compound relative to the reference compounds and the reported lifetime of the reference compounds as shown below:
[formula] where τx is the atmospheric lifetime of test material, τr is the atmospheric lifetime of the reference compound, and kx and kr are the rate constants for the reaction of hydroxyl radical with test material and the reference compound, respectively. The concentrations of gases in the test chamber were quantified by Fourier transform infrared spectroscopy (FTIR). The measured atmospheric lifetime value of each fluid was subsequently used for the GWP calculation.

rats = assay: Repeat dose inhalation toxicity in rats; type: in vivo; details: 3 male rats, 750 ppm, 6-hour/day, five day repeated exposure
Protocol: Toxicity: The repeat dose inhalation toxicity in rats was determined by a five day repeated exposure of 3 male rats to 750 ppm of the test compound for 6 hours per day.
The repeat dose inhalation toxicity in rats was determined by a five day repeated exposure of 3 male rats to 750 ppm (6-hour/day) of Example 2.

LSH (n in CnH2n+2) ([1]; 23° C.)	LSH (n in CnH2n+2) ([1]; 50° C.)	SMILES	Atmospheric Lifetime [2]	clinical signs of toxicity, body weights, organ weights (rats)	histopathological effects in respiratory tract, liver, kidneys (rats)
14	17	FC(F)(F)CC(F)(F)CCl [CE5]	–	–	–
10	10	COC(F)(F)C(F)(F)C(F)(F)F [CE2, CF3(CF2)2—O—CH3]	5.0 years	–	–
9	9	COC(F)(F)C(F)(F)C(F)(F)C(F)(F)F [CE1, n-C4F9—O—CH3]	–	–	–

The remaining lines, values behind:

SMILES	LSH (n in CnH2n+2) ([1]; 23° C.)	LSH (n in CnH2n+2) ([1]; 50° C.)	Atmospheric Lifetime [2]	clinical signs of toxicity, body weights, organ weights (rats)	histopathological effects in respiratory tract, liver, kidneys (rats)
CSC(F)(C(F)(F)F)C(F)(F)F [Example 2, perfluoroisopropyl methyl thioether]	18	>23	0.01 years	no adverse clinical signs of toxicity, changes in body weights, or organ weights (lungs, liver, and kidneys)	No adverse histopathological effects were observed in the respiratory tract, liver, or kidneys
CSC(F)(F)C(F)(F)C(F)(F)C(F)(F)F [Example 1, n-C4F9—S—CH3]	18	21	–	–	–
